Our source for the MIC values is patent US12637478B2, “Compound, preparation method thereof, and antibiotic composition comprising same” (priority 2020, dated 2026).

A word on the MIC: it is the least concentration at which growth counts as inhibited.

Test [1] has as its system S. aureus^MS. Description: MIC by broth microdilution (aerobic pathogens), test strain 1. The following applies: Staphylococcus aureus; test strain 1, S. aureus^MS; read-out: MIC. In kind it is cell-based. The procedure, abridged: (§1)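 Broth microdilution per CLSI M7-A5 standards was used. MIC was taken as the lowest antibiotic concentration inhibiting bacterial growth by 90% relative to the untreated growth control.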
In general terms: Dilution methods test growth across graded concentrations, often in twofold steps.

Test [2] concerns S. aureus^MS. Nature of the test: MIC by broth microdilution (aerobic pathogens), test strain 2. Format: cell-based. The following applies: Staphylococcus aureus; test strain 2, S. aureus^MS; read-out: MIC. A digest of the protocol: as §1
In test [3] the test system is S. aureus^VR. Nature of the test: MIC by broth microdilution (aerobic pathogens), test strain 4. In kind it is cell-based, Vancomycin resistant Staphylococcus aureus. Conditions: Staphylococcus aureus; test strain 4, S. aureus^VR (vancomycin resistant); read-out: MIC. The procedure, abridged:
as §1

In test [4] the test system is S. epidermis. Description: MIC by broth microdilution (aerobic pathogens), test strain 5. The following applies: Staphylococcus epidermidis. In kind it is cell-based. A digest of the protocol: as §1
The test system of test [5] is S. epidermis^MR. Description: MIC by broth microdilution (aerobic pathogens), test strain 6. Format: cell-based, Methicillin resistant Staphylococcus epidermidis. Conditions: Staphylococcus epidermidis; test strain 6, S. epidermis^MR (methicillin resistant); read-out: MIC. A digest of the protocol:
as §1

Test [6] concerns E. faecalis. Description: MIC by broth microdilution (aerobic pathogens), test strain 7. Format: cell-based. The following applies: Enterococcus faecalis. A digest of the protocol: as §1
The test system of test [7] is E. faecalis^VanA. Nature of the test: MIC by broth microdilution (aerobic pathogens), test strain 8. Conditions: Enterococcus faecalis; test strain 8, E. faecalis^VanA (vancomycin resistant); read-out: MIC. Format: cell-based, Vancomycin resistant Enterococcus faecalis. The procedure, abridged: as §1
The test system of test [8] is E. faecalis^LinR. Description: MIC by broth microdilution (aerobic pathogens), test strain 9. The following applies: Enterococcus faecalis; test strain 9, E. faecalis^LinR (linezolid resistant); read-out: MIC. Format: cell-based, Linezolid resistant Enterococcus faecalis. The procedure, abridged:
as §1

In test [9] the test system is E. faecium. Description: MIC by broth microdilution (aerobic pathogens), test strain 10. The following applies: Enterococcus faecium; test strain 10, E. faecium; read-out: MIC. In kind it is cell-based. A digest of the protocol: as §1
In test [10] the test system is E. faecium^LinR. Description: MIC by broth microdilution (aerobic pathogens), test strain 12. In kind it is cell-based, Linezolid resistant Enterococcus faecium. The following applies: Enterococcus faecium; test strain 12, E. faecium^LinR (linezolid resistant); read-out: MIC. The procedure, abridged:
as §1

The test system of test [11] is C. difficile 161. Description: MIC by agar dilution against Clostridioides difficile, test strain 16. In kind it is cell-based. The following applies: test strain 16, C. difficile 161, anaerobic, agar dilution, read-out: MIC. A general note: In agar dilution, organisms are placed on agar that contains the substance at set levels.
Test [12] relates to C. difficile 173. Nature of the test: MIC by agar dilution against Clostridioides difficile, test strain 17. Conditions: test strain 17, C. difficile 173, anaerobic, agar dilution, read-out: MIC. In kind it is cell-based.
Test [13] deals with C. difficile 174. Nature of the test: MIC by agar dilution against Clostridioides difficile, test strain 18. In kind it is cell-based. Conditions: test strain 18, C. difficile 174, anaerobic, agar dilution, read-out: MIC.
In test [14] the test system is M. tuberculosis. Nature of the test: MIC by resazurin (REMA) assay against Mycobacterium, test strain 20. In kind it is cell-based. On the procedure:
(§2) In order to test the antibacterial activity, the medium of Mycobacterium cultured to late log phase was diluted so as to be 4.0×10^5 cells/well in Middlebrook 7H10 agar medium (Difco) supplemented with 10% oleic acid, albumin, dextrose, catalase (OADC, Becton Dickinson) and 0.05% Tween 80 (Sigma Aldrich) and was dispensed into a 96-well plate. The compounds were treated so that DMSO was 1%, and after 3 days, a 0.025% resazurin (REMA) solution was dispensed, and the growth of the bacteria was confirmed after culturing. The MIC value was measured for the antibacterial activity through resazurin (excitation 530 nm, emission 590 nm).
In general terms: Alamar Blue is a resazurin reagent that responds to reducing activity.

Test [15] has as its system S. aureus^MR. Nature of the test: MIC by broth microdilution (aerobic pathogens), test strain 3. In kind it is cell-based, Methicillin resistant Staphylococcus aureus. Conditions: Staphylococcus aureus; test strain 3, S. aureus^MR (methicillin resistant); read-out: MIC. On the procedure: The antibacterial activity of the compounds of Examples 1 to 48 of the present invention against aerobic pathogens were evaluated by measuring the minimum concentration of the antibiotic capable of inhibiting bacterial growth by 90% compared to the growth of the non-drug treated control group. MIC was measured by the broth microdilution method based on CLSI standards [Reference: Clinical and Laboratory Standards Institute Document. (2000) Methods for Dilution Antimicrobial Susceptibility Test for Bacteria that Grow Aerobically-Fifth Edition: M7-A5. CLSI, Villanova, PA].
All 13 strains such as methicillin susceptible Staphylococcus aureus (MSSA), methicillin resistant Staphylococcus aureus (MRSA), Vancomycin resistant Staphylococcus aureus (VRSA), Staphylococcus epidermidis, methicillin resistant Staphylococcus epidermidis, Enterococcus faecalis, Vancomycin resistant Enterococcus faecalis, Enterococcus faecium, Vancomycin resistant Enterococcus faecium were used.

Test [16] has as its system E. faecium^VRE. Nature of the test: MIC by broth microdilution (aerobic pathogens), test strain 11. Format: cell-based, Vancomycin resistant Enterococcus faecium. Conditions: Enterococcus faecium; test strain 11, E. faecium^VRE (vancomycin resistant); read-out: MIC. A digest of the protocol: as §1
For test [17], the system named is C. difficile 152. Description: MIC by agar dilution against Clostridioides difficile, test strain 14. In kind it is cell-based. Conditions: test strain 14, C. difficile 152, anaerobic, agar dilution, read-out: MIC.
Test [18] concerns C. difficile 159. Nature of the test: MIC by agar dilution against Clostridioides difficile, test strain 15. Format: cell-based. Conditions: test strain 15, C. difficile 159, anaerobic, agar dilution, read-out: MIC.
For test [19], the system named is C. difficile 181. Description: MIC by agar dilution against Clostridioides difficile, test strain 19. In kind it is cell-based. The following applies: test strain 19, C. difficile 181, anaerobic, agar dilution, read-out: MIC.
Test [20] relates to M. avium. Description: MIC by resazurin (REMA) assay against Mycobacterium, test strain 21. In kind it is cell-based. The protocol:
as §2

Test [21] has as its system M. intracelluare. Nature of the test: MIC by resazurin (REMA) assay against Mycobacterium, test strain 22. In kind it is cell-based. Conditions: Mycobacterium intracellulare. The protocol:
as §2

Test [22] concerns M. abscessus. Description: MIC by resazurin (REMA) assay against Mycobacterium, test strain 23. The following applies: Mycobacteroides abscessus. Format: cell-based. The protocol:
as §2

Setting [23] is: test strain 5, S. epidermis, read-out: MIC.
Where [24] appears, read: test strain 7, E. faecalis, read-out: MIC.

In brackets after ≈: the same amount, converted by molar mass. Like-named read-outs stand apart in the source and are kept apart here.

Consider `C/C=C(\NC(=O)c1csc(-c2csc(-c3ccc4c(n3)-c3csc(n3)[C@H]([C@@H](C)O)NC(=O)c3csc(n3)[C@H](C(C)C)NC(=O)c3csc(n3)/C(=C/C)NC(=O)[C@H]([C@@H](C)O)NC(=O)c3csc-4n3)n2)n1)C(=O)NCCN1CCOCC1` [Compound 1], for which the MIC in [1] turned out to be 0.125 µg/mL (≈ 0.104 µM); in [2] it was 0.125 µg/mL (≈ 0.104 µM); in test [3], 1 µg/mL (≈ 0.834 µM); in [4] (setting [23]) it was 0.125 µg/mL (≈ 0.104 µM); in test [5], 0.125 µg/mL (≈ 0.104 µM); in test [6] (setting [24]), 0.25 µg/mL (≈ 0.208 µM). For the same compound, the minimum inhibitory concentration (MIC) in test [7] was determined as 0.125 µg/mL (≈ 0.104 µM); in [8] it was 0.125 µg/mL (≈ 0.104 µM); in test [9] it was 0.5 µg/mL (≈ 0.417 µM); in test [10], 1 µg/mL (≈ 0.834 µM); in test [11], 0.5 µg/mL (≈ 0.417 µM); in test [12], 1 µg/mL (≈ 0.834 µM). The MIC in test [13] was determined as 0.5 µg/mL (≈ 0.417 µM); in test [14] it was 0.076 µg/mL (≈ 0.0634 µM).
`C/C=C(\NC(=O)c1csc(-c2csc(-c3ccc4c(n3)-c3csc(n3)[C@H]([C@@H](C)O)NC(=O)c3csc(n3)[C@H](C(C)C)NC(=O)c3csc(n3)/C(=C/C)NC(=O)[C@H]([C@@H](C)O)NC(=O)c3csc-4n3)n2)n1)C(=O)NCCn1c([N+](=O)[O-])cnc1C` [Compound 3]: the minimum inhibitory concentration (MIC) was 0.0625 µg/mL (≈ 0.0504 µM) in test [1]; less than 0.0625 µg/mL in test [2]; 1 µg/mL (≈ 0.807 µM) in test [15]; 0.25 µg/mL (≈ 0.202 µM) in test [3]; 0.25 µg/mL (≈ 0.202 µM) in test [4] (setting [23]); 0.125 µg/mL (≈ 0.101 µM) in [5]. Also, the minimal inhibitory concentration (MIC) in test [6] (setting [24]) came out at 0.0625 µg/mL (≈ 0.0504 µM); in test [7], 0.125 µg/mL (≈ 0.101 µM); in test [8], 0.125 µg/mL (≈ 0.101 µM); in [9] it was 0.125 µg/mL (≈ 0.101 µM); in test [16], 0.25 µg/mL (≈ 0.202 µM); in [10] it was 0.25 µg/mL (≈ 0.202 µM). The minimal inhibitory concentration (MIC) in test [17] came out at 1 µg/mL (≈ 0.807 µM); in test [18] it was 1 µg/mL (≈ 0.807 µM); in [11], 0.25 µg/mL (≈ 0.202 µM); in test [12], 0.5 µg/mL (≈ 0.403 µM); in test [13], 0.25 µg/mL (≈ 0.202 µM); in test [19] it was 0.5 µg/mL (≈ 0.403 µM). This compound returned an MIC in test [14] of 0.1 µg/mL (≈ 0.0807 µM).
As for `C/C=C1\NC(=O)[C@H]([C@@H](C)O)NC(=O)c2csc(n2)-c2ccc(-c3nc(-c4nc(C(=O)NC5(C(=O)NCCN6CCN(C)CC6)CC5)cs4)cs3)nc2-c2csc(n2)[C@H]([C@@H](C)O)NC(=O)c2csc(n2)[C@H](C(C)C)NC(=O)c2csc1n2` [Compound 4], the minimum inhibitory concentration (MIC) in test [1] is 0.5 µg/mL (≈ 0.412 µM); in test [2] it was 0.5 µg/mL (≈ 0.412 µM); in test [15] it was 1 µg/mL (≈ 0.825 µM); in test [3], 1 µg/mL (≈ 0.825 µM); in [4] it was 0.25 µg/mL (≈ 0.206 µM); in test [5], 0.5 µg/mL (≈ 0.412 µM). Further, the MIC in [6] was 0.25 µg/mL (≈ 0.206 µM); in test [7], 0.5 µg/mL (≈ 0.412 µM); in test [8], 1 µg/mL (≈ 0.825 µM); in [9] it was 0.5 µg/mL (≈ 0.412 µM); in test [10], 1 µg/mL (≈ 0.825 µM); in test [20], 0.115 µg/mL (≈ 0.0948 µM). Besides, the values for the minimal inhibitory concentration (MIC) in test [21] and in test [22] were 0.143 µg/mL (≈ 0.118 µM) and 0.157 µg/mL (≈ 0.129 µM), respectively.
